Measured values published in patent EP4121415B1, “INHIBITORS OF CYTOKININ OXIDASE DERIVED FROM 1-[2-(HYDROXYALKYL)PHENYL]-3-YLUREA, USE THEREOF AND PREPARATIONS CONTAINING THESE DERIVATIVES” (Univerzita Palackého v Olomouci, priority 2020, dated 2021).
Where two headings read alike, the source gives them in different places.

Legend:
[1] = test system: segments of wheat leaves (Triticum aestivum cv. Hereward); assay: wheat leaf senescence assay performed in the dark (chlorophyll retention in detached leaf segments); format: in vivo; settings: 10 micromolar, 96 hours in the dark at 25 °C, compared to yellow control (0,2% DMSO); for activation at 10 µM: Triticum aestivum, foliar, read-out: (% of chlorophyll above control)
Protocol: Seeds of winter wheat (Triticum aestivum cv. Hereward) was washed under running water for 4 hours and then sown in vermiculite saturated with Knop's nutrient solution. The trays with seeds were placed in an air-conditioned growth chamber with a 16/8 hour light regime (light intensity 50 µmol.m^-2.s^-1) and a temperature of 15 °C. After 7 days, the seedlings had developed the first […] and the second leaf began to grow. Top sections approximately 4 cm long were excised from the first leaves of 4 plants and their combined weight was adjusted to exactly 100 mg. The basal ends of these 4 leaf segments were placed in the wells of microtiter polystyrene plates containing solution (150 µL) of the tested derivative. The plates were placed in a plastic box with filter paper, which was saturated with water (to maintain the maximum humidity). After 96 hours of incubation in the dark at 25 °C, the leaf segments were removed and the chlorophyll was extracted to 5 mL of 80% ethanol by heating the leaf segments in ethanol at 80 °C for 40 min. The sample volume was then adjusted to 5 mL by adding 80% ethanol. The absorbance of the extracts was measured at 665 nm. Chlorophyll extracts from leaf segments incubated in deionized water (so-called yellow control) were also measured as controls. Freshly cut leaves (100 mg) were used as a green control, from which chlorophyll was extracted and measured in the same manner. The calculated values are the average of 5 replicates and the whole experiment was repeated two times. The tested compounds were dissolved in dimethyl sulfoxide (DMSO) to a concentration 10^-2 M. This stock solution was further diluted with water to a concentration of 10 micromolar. At this concentration, the substances were tested.

[2] = target: T1, maize enzyme cytokinin oxidase/dehydrogenase 1 (ZmCKX1) (Zea mays, UniProt Q9T0N8); assay: ZmCKX1 inhibition, PMS/MTT assay; format: biochemical
T1 construct: made in house; host or cells: Yarrowia lipolytica
T1 sequence (Q9T0N8 19-534): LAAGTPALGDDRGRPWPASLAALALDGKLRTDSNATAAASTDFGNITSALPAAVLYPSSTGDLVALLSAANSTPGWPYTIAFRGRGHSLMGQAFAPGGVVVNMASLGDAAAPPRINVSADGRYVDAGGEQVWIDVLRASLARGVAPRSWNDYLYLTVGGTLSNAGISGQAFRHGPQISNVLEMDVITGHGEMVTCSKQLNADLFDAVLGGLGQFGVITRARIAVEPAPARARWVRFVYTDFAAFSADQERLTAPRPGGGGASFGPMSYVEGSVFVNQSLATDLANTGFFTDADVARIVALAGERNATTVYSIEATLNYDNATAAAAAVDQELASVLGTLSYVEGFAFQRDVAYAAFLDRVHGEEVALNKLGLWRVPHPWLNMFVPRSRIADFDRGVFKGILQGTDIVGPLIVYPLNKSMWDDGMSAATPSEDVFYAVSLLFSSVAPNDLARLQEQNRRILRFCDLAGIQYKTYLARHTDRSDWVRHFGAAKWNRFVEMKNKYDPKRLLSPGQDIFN
Protocol: The IC50 (concentration of a substance that causes 50% inhibition of the enzyme activity) was measured by PMS/MTT assay [phenazine methosulphate/3-(4,5-dimethylthiazol-2-yl)-2,5-diphenyltetrazolium bromide]. The assay was performed in 96-well microtiter plates. Each well contained a reaction mixture with a final concentration of: 0.1 M KH2PO4, pH 7.4, 1 mM MTT, 0.2 mM PMS, tested substance in a concentration range of 0.1 nM - 1 µM and 10 µM N^6-isopentenyladenine (iP) as a substrate. To this reaction mixture 100 µL of medium containing the active enzyme ZmCKX1 was added. The enzyme was produced by the yeast Yarrowia lipolytica and isolated according to the protocol (Kopečný D. et al., 2005, […] 87:1011-1022). The plates were incubated for 30 min at 37 °C and the enzymatic reaction was stopped by the addition of 25 µL of 35% acetic acid. Then, the absorbance at 578 nm was measured on a spectrophotometer, and the absorbance of the sample without the substrate was substracted as a reference value. The IC50 value was determined from the concentration-dependent curves in GraphPad Prism software. The values shown in Table 1 are the average of at least two measurements each performed in three repetitions. […] This also applies to 3,5-DCl-Ph-U derivatives.

[3] = test system: winter wheat (Triticum aestivum cv. Hereward); assay: salt-induced senescence of wheat plants; format: in vivo; settings: 100 nM aqueous solution, 75 mM NaCl seven days after planting, assessed 30 days after planting
Protocol: To investigate the effects of compounds 64 and 66 on salt-induced senescence, seeds of winter wheat (Triticum aestivum cv. Hereward) were washed under running water for 4 hours and then sown on perlite soaked with water (control) or 100 nM aqueous solution of compounds 64 or 66. Trays with seeds were placed in a growth chamber at 25 °C for 16/8 h light/dark at an intensity of 50 µmol.m^-2.s^-1. Seven days after planting, the plants were treated with 75 mM NaCl solution. The plants were allowed to grow and the plant damage was assessed 30 days after planting.
While untreated plants have the first leaves dead and the second leaves yellow, plants treated with CKX inhibitors have the first leaves yellowing and the second leaves green. […] This in vivo experiment is evidence that CKX inhibitors prolong the photosynthetic activity of wheat plants that have been exposed to environmental stress.

[4] = 10 µM N6-isopentenyladenine (iP) as substrate, pH 7.4, 30 min at 37 °C, average of at least two measurements, read-out: IC50 (µM) ZmCKX1

Row | SMILES | activation at 10 µM [1] [%] | IC50 [2, 4] [µM] | IC50 [2] [µM] | (% of chlorophyll above control) [1] [%] | plant damage and senescence under salinity stress [3] | total chlorophyll content in whole plants: untreated salinity-stressed plants have less chlorophyll than treated stressed plants [3] [%]
1 | O=C(Nc1cc(Cl)nc(Cl)c1)Nc1cc(Cl)ccc1CO [Compound 6, 1-(5-chloro-2-hydroxymethylphenyl)-3-(2,6-dichloropyridin-4-yl)urea] | 29 | 0.1 | – | – | – | –
2 | O=C(Nc1ccnc(F)c1)Nc1cc(Cl)ccc1CO [Compound 2, 1-(5-chloro-2-hydroxymethylphenyl)-3-(2-fluoropyridin-4-yl)urea] | 23 | 0.27 | – | – | – | –
3 | O=C(Nc1ccccc1)Nc1ccnc(Cl)c1 [CPPU, 1-(2-chloropyridin-4-yl)-3phenylurea, reference compound] | 12 | – | 20.5 | – | – | –
4 | COc1cc(Br)cc(NC(=O)Nc2ccccc2CO)c1 [Compound 22, 1-(3-bromo-5-methoxyphenyl)-3-(2-hydroxymethylphenyl)urea] | – | – | 0.26 | 25 | – | –
5 | COc1cc(NCCN)cc(NC(=O)Nc2cc(Cl)ccc2CCO)c1 [Compound 59, 1-[5-chloro-2-(2-hydroxyethyl)phenyl]-3-[3-(2-aminoethylamino)-5-methoxyphenyl]urea] | 48 | 0.008 | – | – | – | –
6 | COc1cc(NCCN)cc(NC(=O)Nc2cc(Cl)ccc2CO)c1 [Compound 25, 1-(5-chloro-2-hydroxymethylphenyl)-3-[3-(2-aminoethylamino)-5-methoxyphenyl]urea] | 45 | 0.024 | – | – | – | –
7 | O=C(Nc1cc(F)nc(F)c1)Nc1cc(Cl)ccc1CCO [Compound 11, 1-[5-chloro-2-(2-hydroxyethyl)phenyl]-3-(2,6-difluoropyridin-4-yl)urea] | 31 | 0.095 | – | – | – | –
8 | COc1cc(NC(=O)Nc2cc(Br)ccc2CO)ccn1 [Compound 8, 1-(5-bromo-2-hydroxy-methylphenyl)-3-(2-methoxypyridin-4-yl)urea] | – | – | 0.13 | 25 | – | –
9 | COc1cccc(NC(=O)Nc2cc(F)ccc2CCO)c1 [Compound 51, 1-[5-fluoro-2-(2-hydroxyethyl)phenyl]-3-(3-methoxyphenyl)urea] | 30 | 0.08 | – | – | – | –
10 | O=C(Nc1cccc(SC(F)(F)F)c1)Nc1cc(F)ccc1CO [Compound 42, 1-(5-fluoro-2-hydroxymethylphenyl)-3-(3-trifluoromethylsulphanylphenyl)urea] | 25 | 0.08 | – | – | – | –
11 | O=C(Nc1cc(Cl)cc(OC(F)(F)F)c1)Nc1ccccc1CCO [Compound 64, 1-(3-Chloro-5-trifluoromethoxyphenyl)-3-[2-(2-hydroxyethyl)phenyl]urea] | – | – | 0.058 | – | reduced the damage and delayed the senescence | 27
12 | COc1cccc(NC(=O)Nc2cc(Br)ccc2CCO)c1 [Compound 53] | – | 0.074 | – | 35 | – | –
13 | COc1cc(NC(=O)Nc2cc(Cl)cc(Cl)c2CCO)ccn1 [Compound 16, 1-[3,5-dichloro-2-(2-hydroxyethyl)phenyl]-3-(2-methoxypyridin-4-yl)urea] | 35 | 0.081 | – | – | – | –
14 | NCCNc1cc(NC(=O)Nc2cc(Cl)ccc2CO)cc(OC(F)(F)F)c1 [Compound 40, 1-(5-chloro-2-hydroxymethylphenyl)-3-[3-(2-aminoethylamino)-5-trifluoromethoxyphenyl]urea] | 39 | 0.01 | – | – | – | –
15 | O=C(Nc1cc(Br)cc(OC(F)(F)F)c1)Nc1ccccc1CCO [Compound 65, 1-(3-Bromo-5-trifluoromethoxyphenyl)-3-[2-(2-hydroxyethyl)phenyl]urea] | – | – | 0.035 | 30 | – | –
16 | O=C(Nc1cccc(OC(F)(F)F)c1)Nc1cc(Cl)ccc1CCO [Compound 62, 1-[5-chloro-2-(2-hydroxyethyl)phenyl]-3-(3-trifluoromethoxyphenyl)urea] | 39 | 0.021 | – | – | – | –
17 | O=C(Nc1cccc(SC(F)(F)F)c1)Nc1ccccc1CCO [Compound 68, 1-[2-(2-Hydroxyethyl)phenyl]-3-(3-trifluoromethylsulphanylphenyl)urea] | 34 | 0.074 | – | – | – | –
18 | CSc1cccc(NC(=O)Nc2cc(Br)ccc2CO)c1 [Compound 27, 1-(5-bromo-2-hydroxy-methylphenyl)-3-(3-methylsulphanylphenyl)urea] | – | – | 0.17 | 26 | – | –
19 | COc1cccc(NC(=O)Nc2cc(Cl)ccc2CCO)c1 [Compound 52, 1-[5-chloro-2-(2-hydroxyethyl)phenyl]-3-(3-methoxyphenyl)urea] | 37 | 0.066 | – | – | – | –
20 | O=C(Nc1cc(NCCO)cc(OC(F)(F)F)c1)Nc1ccccc1CCO [Compound 66, 1-[3-(2-Hydroxyethylamino)-5-trifluoromethoxyphenyl]-3-[2-(2-hydroxyethyl)phenyl]urea] | 36 | 0.029 | – | – | reduced the damage and delayed the senescence | 27
21 | O=C(Nc1cccc(OC(F)(F)F)c1)Nc1cc(Br)ccc1CO [Compound 34, 1-(5-Bromo-2-hydroxymethylphenyl)-3-(3-trifluoromethoxyphenyl)urea] | – | – | 0.1 | 32 | – | –
22 | CSc1cccc(NC(=O)Nc2cc(Cl)ccc2CCO)c1 [Compound 60, 1-[5-chloro-2-(2-hydroxyethyl)phenyl]-3-(3-methylsulphanylphenyl)urea] | 36 | 0.035 | – | – | – | –
